Measurements published in patent US11896593B2, “Sulfamate derivative compounds for use in treating or alleviating a psychiatric disorder” (Bio-Pharm Solutions Co., Ltd., priority 2020, dated 2024).

System: ICR male mice
Test: Forced swim test (mouse, mFST)
Format: in vivo
Conditions: po, mouse forced swim test, 1 hr, read-out: mFST protection % at administration dose
Method: In order to determine the anti-depressant effect in rodents, the forced swim test was performed with rats and mice. The forced swim test causes an immobile state by forcing an animal to swim in a confined space. It reflects a state of despair giving up evading such a circumstance. ICR male mice (25 g to 30 g) and Wistar male rats (240 g to 260 g) were purchased from Samtako Bio Korea Co. (Korea) and allowed to acclimatize for 1 week before being tested in a controlled animal facility (temperature 22±2° C., humidity 55±5%). The test compound was dissolved in 20% Tween80 and administered orally 60 minutes before testing. The control group was provided with a corresponding vehicle. […] 15 minutes of forced swimming was performed a day before the experiment. On the day of the experiment, the animal was placed in the cylinder 60 minutes after the administration of the compound and was videotaped for 6 minutes. In the recorded videos, time during which the animal placed its head on the water and remained still without movement was measured based on the remaining 4 minutes excluding the first 2 minutes. It was evaluated that the lower the value of the immobile posture time, the greater the anti-depressant action (Reference; Porsolt R D, Le Pichon M. Jalfre M. 1997. Depression: a new animal model sensitive to antidepressant treatments. Nature. April 21; 266(5604):730-2.).
The result was shown as the standard error of measurement (SEM) of mean value t mean value. Behavioral data were analyzed by one-way ANOVA. For statistical significance, a value of <0.05 was taken (***p<0.001, **p=0.001˜0.01, *p=0.01˜0.05). Data management and statistics were performed using the Prism software of Windows version 4 (GraphPad Softward Co., San Diego, CA, USA).
Based on the results of Table 7, the ED50 value of the compound of Example 2 was calculated and shown in Table 7, and after 30 mg/kg and 60 mg/kg of the compounds of the other remaining examples were administered based on TD50 values to perform the forced swim tests, respectively, the administration doses with protected efficacy and protection % at the corresponding administration doses were shown in Table 7.

| Compound | inhibition in vivo at 60 mg/kg [%] | inhibition in vivo at 30 mg/kg [%] |
| --- | --- | --- |
| NS(=O)(=O)OC[C@@H]1OC2(CCCC2)O[C@H]1c1ccccc1Cl [Example 10, ((2S,3S)-3-(2-chlorophenyl)-1,4-dioxaspiro[4,4]nonan-2-yl)methyl sulfamate] | 19 |  |
| CC1(C)O[C@@H](COS(N)(=O)=O)[C@H](c2ccc(Cl)cc2Cl)O1 [Example 40, ((4S,5S)-5-(2,4-dichlorophenyl)-2,2-dimethyl-1,3-dioxolan-4-yl)methyl sulfamate] |  | 64.2 |
| NS(=O)(=O)OC[C@H]1OC2(CCCC2)O[C@@H]1c1c(Cl)cccc1Cl [Example 57, ((2R,3R)-3-(2,6-dichlorophenyl)-1,4-dioxaspiro[4,4]nonan-2-yl)methyl sulfamate] |  | 61.6 |
| Nc1ccccc1[C@@H]1OC2(CCCC2)O[C@H]1COS(N)(=O)=O [Example 72, ((2S,3S)-3-(2-aminophenyl)-1,4-dioxaspiro[4,4]nonan-2-yl)methyl sulfamate] | 54.3 |  |
| NS(=O)(=O)OC[C@@H]1OC(=O)O[C@H]1c1ccccc1[N+](=O)[O-] [Example 90, ((4S,5S)-5-(2-nitrophenyl)-2-oxo-1,3-dioxolan-4-yl)methyl sulfamate] | 60.4 |  |
| Cc1ccccc1[C@@H]1OC(C)(C)O[C@H]1COS(N)(=O)=O [Example 92, ((4S,5S)-5-(2-methylphenyl)-2,2-dimethyl-1,3-dioxolan-4-yl)methyl sulfamate] |  | 47 |
| CC1(C)O[C@@H](COS(N)(=O)=O)[C@H](c2ccccc2)O1 [Example 106, ((4S,5S)-5-phenyl-2,2-dimethyl-1,3-dioxolan-4-yl)methyl sulfamate] | 24.5 |  |
| NS(=O)(=O)OC[C@@H]1OC2(CCCC2)O[C@H]1c1ccccc1 [Example 110, ((2S,3S)-3-phenyl-1,4-dioxaspiro[4,4]nonan-2-yl)methyl sulfamate] | 39.3 |  |
| CC1(C)O[C@@H](CCOS(N)(=O)=O)[C@H](Cc2ccccc2)O1 [Example 114, 2-((4S,5S)-5-benzyl-2,2-dimethyl-1,3-dioxolan-4-yl)ethyl sulfamate] | 36.4 |  |
| NS(=O)(=O)OCC[C@@H]1OC2(CCCC2)O[C@H]1Cc1ccccc1 [Example 118, 2-((2S,3S)-3-benzyl-1,4-dioxaspiro[4,4]nonan-2-yl)ethyl sulfamate] | 35.3 |  |
| CC1(C)O[C@@H](COS(N)(=O)=O)[C@H](Cc2ccccc2)O1 [Example 122, ((4S,5S)-5-benzyl-2,2-dimethyl-1,3-dioxolan-4-yl)methyl sulfamate] |  | 46.9 |
| NS(=O)(=O)OC[C@@H]1OC2(CCCC2)O[C@H]1Cc1ccccc1 [Example 126, ((2S,3S)-3-benzyl-1,4-dioxaspiro[4,4]nonan-2-yl)methyl sulfamate] | 43 |  |
| CC1(C)O[C@@H](CCOS(N)(=O)=O)[C@H](c2ccccc2)O1 [Example 130, 2-((4S,5S)-5-phenyl-2,2-dimethyl-1,3-dioxolan-4-yl)ethyl sulfamate] |  | 57.5 |
| NS(=O)(=O)OCC[C@@H]1OC2(CCCC2)O[C@H]1c1ccccc1 [Example 134, 2-((2S,3S)-3-phenyl-1,4-dioxaspiro[4,4]nonan-2-yl)ethyl sulfamate] |  | 63 |
| CC1(C)O[C@@H](CCOS(N)(=O)=O)[C@H](Cc2ccccc2Cl)O1 [Example 138, 2-((4S,5S)-5-(2-chlorobenzyll)-2,2-dimethyl-1,3-dioxolan-4-yl)ethyl sulfamate] | 60.2 |  |
| NS(=O)(=O)OCC[C@@H]1OC2(CCCC2)O[C@H]1Cc1ccccc1Cl [Example 142, 2-((2S,3S)-3-(2-chlorobenzyl)-1,4-dioxaspiro[4,4]nonan-2-yl)ethyl sulfamate] | 45.9 |  |
| CC1(C)O[C@@H](COS(N)(=O)=O)[C@H](Cc2ccccc2Cl)O1 [Example 146, ((4S,5S)-5-(2-chlorobenzyl)-2,2-dimethyl-1,3-dioxolan-4-yl)methyl sulfamate] | 65.1 |  |
| NS(=O)(=O)OC[C@@H]1OC2(CCCC2)O[C@H]1Cc1ccccc1Cl [Example 150, ((2S,3S)-3-(2-chlorobenzyl)-1,4-dioxaspiro[4,4]nonan-2-yl)methyl sulfamate] | 56.9 |  |
| CC1(C)O[C@@H](CCOS(N)(=O)=O)[C@H](c2ccccc2Cl)O1 [Example 154, 2-((4S,5S)-5-(2-chlorophenyl)-2,2-dimethyl-1,3-dioxolan-4-yl)ethyl sulfamate] | 38.9 |  |
| NS(=O)(=O)OCC[C@@H]1OC2(CCCC2)O[C@H]1c1ccccc1Cl [Example 158, 2-((2S,3S)-3-(2-chlorophenyl)-1,4-dioxaspiro[4,4]nonan-2-yl)ethyl sulfamate] |  | 51.6 |
| CC1(C)O[C@@H](COS(N)(=O)=O)[C@H](c2sc(Cl)nc2Cl)O1 [Example 164, ((4S,5R)-5-(2,4-dichlorothiazol-5-yl)-2,2-dimethyl-1,3-dioxolan-4-yl)methyl sulfamate] | 44.9 |  |
| CC1(C)O[C@@H](COS(N)(=O)=O)[C@H](c2cnc(Cl)s2)O1 [Example 166, ((4R,5S)-5-(2-chlorothiazol-5-yl)-2,2-dimethyl-1,3-dioxolan-4-yl)methyl-sulfamate] | 53.3 |  |
